Assay results published in PMC12172326 (Journal of Biomedical Science, 2025).
Read-outs that look alike come from different tables or passages of the source.

Assays:
[1] = cited from earlier work
[2] = mouse pharmacokinetics, plasma and brain, I.P.; assay type: in vivo; details: for Kp / Cmax / Tmax / AUC(0-inf) / AUC(0-t): male, C57/BL6 J, ip; for Kp: brain/plasma, from AUCinfinity values
Protocol: Mice were euthanized from 30 min to 18 h after dosing. Blood samples were collected into heparinized tubes, centrifuged (10,000g × 2 min at 4 °C), and plasma collected and immediately stored at − 80 °C. The brain was rapidly excised on wet ice; a sample of cerebral hemisphere was then removed and immediately frozen to − 80 °C.

aqueous solubility = assay type: physicochemical
Protocol: This coarse drug suspension was transferred into Eppendorf microtubes containing approximately 0.4 g of 0.1–0.2 mm yttrium-stabilized zirconia-silica beads (Silibeads® Typ ZY Sigmund Lindner, Germany). The drug was vortexed twice, at 3000 rpm for 45 min, using a beads-milling cell disruptor (Disruptor Genie®, Scientific Industries, USA). The resulting nanosuspension was collected from each microtube and sieved through a 40 µm filter (Cell Strainer, Falcon # 35234) to remove the zirconia-silica beads. […] The stock drug concentration was 10.83 mg/ml (37.4 mM). The drug vehicle was essentially the same ratio of Tween 80 and water, processed in the identical manner as the drug preparation.

[3] = tested on: LPS-induced cytokines (TNF-α, IL-6, IL-1β, KC/GRO, IL-10); experiment: systemic LPS challenge in mice, plasma and cerebral cortex cytokines; assay type: in vivo, mouse
Protocol: 8-week-old male C57/BL6 J mice (25–30 g; n = 28) were randomly assigned to five experimental groups. […] Rolipram, a discontinued PDE4 inhibitor, with known anti-inflammatory activity was used as a positive control. One hour later, animals were administered either LPS (3 mg/kg, serotype 0111:B4, Sigma Aldrich, in normal saline, 0.1 mL/10 g) or an alike volume of saline (without LPS) via the I.P. route. The LPS dose was selected from prior pilot studies to provide a substantial but sub-maximal rise in plasma pro-inflammatory cytokine levels, in line with our prior research. […] Four hours after LPS administration, animals were euthanized, and blood and brain tissue were collected and placed on wet ice. Plasma was quickly separated from blood by centrifugation (10,000g, 5 min, 4 °C), and together with a brain sample (cerebral cortex), were stored at − 80 °C. At a later time, cerebral cortex samples were sonicated in a TRIS-based lysis buffer (Mesoscale Discovery) with 3 × protease/phosphatase inhibitors (Halt™ Protease and Phosphatase Inhibitor Cocktail, Thermo Fisher Scientific, Waltham, MA, USA). Samples were then centrifuged (10,000g, 10 min, 4 °C) and protein concentrations were quantified by bicinchoninic acid assay (BCA, Thermo Fisher Scientific). Mouse plasma and cerebral cortex samples were analyzed by multi-pro-inflammatory cytokine ELISA (V-PLEX Pro-inflammatory Panel 1 Mouse Kit, Mesoscale Discovery) following the manufacturer’s protocol.

[4] = LPS-induced inflammation in RAW 264.7 cells (viability, nitrite, TNF-α); assay type: cell-based, mouse; details: mouse, RAW 264.7 cells, RAW 264.7, 0.6 to 60 μM, LPS 20 ng/mL, MTS, read-out: cellular viability
Protocol: (§1) RAW 264.7 cell culture: RAW 264.7 cells were obtained from ATCC (Manassas, VA, USA) and grown in Dulbecco’s modified Eagle’s (DMEM), high glucose, GlutaMAX™ media supplemented with 10% FBS (ThermoFisher Scientific, Asheville, NC, USA). Cells were maintained at 37 °C and 5% CO2, were propagated as described by ATCC guidelines, and were cultured as previously communicated. […] One hour later, cells were challenged with lipopolysaccharide (LPS) (20 ng/ml, E. Coli O55:B5, Sigma, St Louis, MO, USA; Cat # L4005). This LPS concentration was selected from pilot studies to provide a submaximal inflammatory insult. Twenty-four hours later, culture media was collected to quantify cell viability (CellTiter 96® Aqueous One Solution Cell Proliferation Assay kit (MTS); Promega, Madison, WI, USA, Cat # G3580), secreted TNF-α protein (ELISA MAX™ Deluxe Set Mouse TNF-α, BioLegend, CA, USA; Cat # 430915) and nitrite (Griess Reagent System, Promega, Madison, WI, USA; Cat # G2930).

RAW 264.7 cells = experiment: as above; assay type: cell-based, mouse; details: RAW 264.7, LPS 20 ng/mL, 24 h, p < 0.05
Protocol: as §1

[5] = rat; cited from earlier work
human cereblon = target: T1, human cereblon (Homo sapiens, UniProt Q96SW2); experiment: cereblon/BRD3 binding assay (AlphaScreen in methods, FRET assay in results); details: dBET1-Cereblon-BRD3 interaction
T1 construct: purchased BPS Bioscience 79770
T1 sequence (Q96SW2 whole entry): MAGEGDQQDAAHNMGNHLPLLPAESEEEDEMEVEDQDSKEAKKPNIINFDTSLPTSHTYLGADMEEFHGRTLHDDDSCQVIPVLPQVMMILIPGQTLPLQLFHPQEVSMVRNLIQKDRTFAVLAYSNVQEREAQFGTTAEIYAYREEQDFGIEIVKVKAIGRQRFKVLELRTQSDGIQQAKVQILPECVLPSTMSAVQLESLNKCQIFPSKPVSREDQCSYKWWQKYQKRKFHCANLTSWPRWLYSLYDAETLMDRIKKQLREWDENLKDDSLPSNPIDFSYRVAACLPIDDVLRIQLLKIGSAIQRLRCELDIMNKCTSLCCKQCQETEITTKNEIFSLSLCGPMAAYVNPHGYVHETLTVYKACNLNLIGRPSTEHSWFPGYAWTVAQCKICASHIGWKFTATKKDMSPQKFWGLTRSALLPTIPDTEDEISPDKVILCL
T1 sequence (Q16531 whole entry partner): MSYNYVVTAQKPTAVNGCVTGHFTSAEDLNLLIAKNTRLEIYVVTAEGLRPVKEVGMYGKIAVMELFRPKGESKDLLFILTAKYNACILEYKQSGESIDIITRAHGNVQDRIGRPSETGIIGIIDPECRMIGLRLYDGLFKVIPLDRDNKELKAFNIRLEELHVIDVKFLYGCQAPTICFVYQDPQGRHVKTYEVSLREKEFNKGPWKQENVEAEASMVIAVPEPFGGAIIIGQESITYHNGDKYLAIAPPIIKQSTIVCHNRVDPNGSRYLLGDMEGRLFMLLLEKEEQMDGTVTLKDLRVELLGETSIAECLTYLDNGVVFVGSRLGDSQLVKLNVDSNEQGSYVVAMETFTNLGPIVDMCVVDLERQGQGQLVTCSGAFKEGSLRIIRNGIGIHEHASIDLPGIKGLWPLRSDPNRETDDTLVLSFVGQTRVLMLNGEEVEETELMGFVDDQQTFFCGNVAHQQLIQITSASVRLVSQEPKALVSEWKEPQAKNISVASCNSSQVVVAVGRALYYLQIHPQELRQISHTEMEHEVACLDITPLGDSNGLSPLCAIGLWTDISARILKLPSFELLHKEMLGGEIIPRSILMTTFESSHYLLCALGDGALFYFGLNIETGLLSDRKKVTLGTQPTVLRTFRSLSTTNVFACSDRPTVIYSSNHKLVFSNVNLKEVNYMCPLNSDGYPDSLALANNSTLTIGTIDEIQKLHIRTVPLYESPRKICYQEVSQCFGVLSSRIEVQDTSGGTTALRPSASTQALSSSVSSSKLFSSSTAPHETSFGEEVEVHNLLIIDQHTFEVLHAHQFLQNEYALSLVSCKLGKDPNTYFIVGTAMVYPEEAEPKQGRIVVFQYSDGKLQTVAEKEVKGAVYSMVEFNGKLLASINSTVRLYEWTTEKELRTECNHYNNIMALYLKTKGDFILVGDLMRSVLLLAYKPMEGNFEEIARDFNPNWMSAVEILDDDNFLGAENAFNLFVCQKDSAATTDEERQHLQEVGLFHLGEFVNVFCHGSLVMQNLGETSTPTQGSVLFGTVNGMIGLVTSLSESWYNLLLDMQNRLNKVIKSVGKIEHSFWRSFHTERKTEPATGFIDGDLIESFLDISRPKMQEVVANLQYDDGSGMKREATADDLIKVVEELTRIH
T1 sequence (Q13619 whole entry partner): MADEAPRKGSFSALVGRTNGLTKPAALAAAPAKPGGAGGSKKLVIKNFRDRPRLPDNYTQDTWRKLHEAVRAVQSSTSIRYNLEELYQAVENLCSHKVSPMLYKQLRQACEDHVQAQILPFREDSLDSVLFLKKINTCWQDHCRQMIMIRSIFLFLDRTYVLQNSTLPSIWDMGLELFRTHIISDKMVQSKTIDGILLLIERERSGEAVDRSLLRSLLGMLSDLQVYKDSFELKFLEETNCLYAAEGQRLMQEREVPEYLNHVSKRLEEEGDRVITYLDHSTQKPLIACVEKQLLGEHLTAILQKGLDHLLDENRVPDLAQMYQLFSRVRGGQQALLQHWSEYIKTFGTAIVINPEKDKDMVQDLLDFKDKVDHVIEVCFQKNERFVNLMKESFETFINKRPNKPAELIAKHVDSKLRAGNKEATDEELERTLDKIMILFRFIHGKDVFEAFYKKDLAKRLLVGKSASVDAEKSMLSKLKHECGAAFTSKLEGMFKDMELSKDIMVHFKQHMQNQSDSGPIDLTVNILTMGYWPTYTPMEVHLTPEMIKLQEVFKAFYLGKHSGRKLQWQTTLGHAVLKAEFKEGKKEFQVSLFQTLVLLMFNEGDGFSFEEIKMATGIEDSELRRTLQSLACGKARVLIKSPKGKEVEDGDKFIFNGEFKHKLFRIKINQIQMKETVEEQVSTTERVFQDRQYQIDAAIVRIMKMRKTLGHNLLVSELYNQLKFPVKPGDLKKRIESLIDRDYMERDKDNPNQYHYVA
T1 sequence (P62877 whole entry partner): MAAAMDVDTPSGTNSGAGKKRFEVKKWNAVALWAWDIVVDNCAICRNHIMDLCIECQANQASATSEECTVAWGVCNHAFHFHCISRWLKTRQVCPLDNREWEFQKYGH
Protocol: Following 30 min incubation with shaking at room temperature, AlphaLISA anti-FLAG Acceptor and Alpha Glutathione Donor beads (PerkinElmer) were sequentially added and then incubated for a further 1 h at room temperature for each of the added chemicals. Alpha counts were, thereafter, recorded on a Synergy Neo2 (BioTek, Agilent, Santa Clara, CA). The relative activity of the alpha signal was calculated after subtraction of the “blank value” from all readings, and the value of vehicle group was then set as 100%.

[6] = 26.5 and 53 mg/kg I.P. 1 h before LPS 3 mg/kg, 4 h, p < 0.05 to < 0.0001
[7] = cerebral cortex, 26.5 and 53 mg/kg I.P., LPS 3 mg/kg, 4 h

Nc1cccc2c1C(=S)N(C1CCC(=O)NC1=O)C2=O (stereo not drawn) [3-MP, 3-monothiopomalidomide]
oral bioavailability [1]: 38.5% | AUCInf ([2]; brain, 2.65 mg/kg I.P.): 676.54 ng·h/g | AUCLast ([2]; brain, 2.65 mg/kg I.P.): 550.20 ng·h/g | AUCInf ([2]; brain, 26.5 mg/kg I.P.): 9052.48 ng·h/g | AUCLast ([2]; brain, 26.5 mg/kg I.P.): 8968.50 ng·h/g | Kp ([2]; 2.65 mg/kg, 2.65 mg/kg I.P., read-out: Brain/plasma ratio): 0.47 | Kp ([2]; 2.65 mg/kg, across the two doses 26.47 and 2.65 mg/kg I.P., read-out: brain/plasma drug concentration ratio): 0.44 to 0.47 | Kp ([2]; 26.5 mg/kg, 26.5 mg/kg I.P., read-out: Brain/plasma ratio): 0.44 | Cmax ([2]; brain, 2.65 mg/kg I.P.): 454 ng/g | Tmax ([2]; brain, 2.65 mg/kg I.P.): 30 min | Cmax ([2]; brain, 26.5 mg/kg I.P.): 4230 ng/g | Tmax ([2]; brain, 26.5 mg/kg I.P.): 60 min | AUC(0-inf) ([2]; plasma, 2.65 mg/kg I.P.): 1440 ng·h/mL | AUC(0-t) ([2]; plasma, 2.65 mg/kg I.P.): 1410 ng·h/mL | Cmax ([2]; plasma, 2.65 mg/kg I.P.): 978 ng/mL | Tmax ([2]; plasma, 2.65 mg/kg I.P.): 30 min | AUC(0-inf) ([2]; plasma, 26.5 mg/kg I.P.): 20800 ng·h/mL | AUC(0-t) ([2]; plasma, 26.5 mg/kg I.P.): 20700 ng·h/mL | Cmax ([2]; plasma, 26.5 mg/kg I.P.): 9580 ng/mL | Tmax ([2]; plasma, 26.5 mg/kg I.P.): 60 min | aqueous solubility (aqueous solubility): poorly aqueous soluble | LPS-mediated elevation in plasma IL-6 [3, 6]: lowered | LPS-mediated elevation in plasma TNF-α [3, 6]: lowered | LPS-induced brain IL-1β [3, 7]: dose-dependent reduction | LPS-induced brain IL-6 [3, 7]: dose-dependent reduction | LPS-induced brain KC/GRO [3, 7]: dose-dependent reduction | LPS-induced brain TNF-α [3, 7]: dose-dependent reduction | levels of the anti-inflammatory cytokine IL-10 ([3]; plasma and brain, 26.5 and 53 mg/kg I.P., compared to LPS treatment): unaffected | viability at 24 h [4]: > 90% | concentration significantly reducing LPS-induced TNF-α (RAW 264.7 cells): ≥ 30 µM | concentration significantly reducing LPS-induced nitrite (RAW 264.7 cells): ≥ 10 µM | stability in ex vivo plasma and liver homogenate samples [5]: relatively stable | IC50 (human cereblon): 210 nM
